What was measured:
[1] = literature (Reis et al. 2004); cited from earlier work
[2] = TEM of aggregates (freeze-fracture etching); assay type: physicochemical; settings: TEM images; sodium cholate at 0.040 molal, CA-PEG4 above CAC
Procedure: For transmission electron microscopy (TEM), different sample concentrations were prepared in milli-Q water for freeze-fracture. A small amount of these solutions were dropped onto a good sample carrier, and then frozen in liquid propane. The frozen samples were then mounted on the sample holder of a BAL-TEC freeze etching instrument (model BAF060). Samples were then fractured, let sublimate for less than 30 seconds before the newly created surface was coated from an angle of 45° (shadowed) with 2 nm of platinum-doped carbon. A 10 nm layer of carbon was then applied perpendicularly. The samples were placed in distilled water to make the platinum-carbon replica float on the water surface. They were then deposited on carbon-coated copper grids. The replicas were examined on a JEOL JEM-2000FX TEM operating at an acceleration voltage of 80 kV.
TEM images of the star polymers shown in FIG. 8 provide unequivocal evidence for the formation of micellar aggregates.

[3] = Loading of a drug: solubilisation of ibuprofen in water; assay type: physicochemical; settings: after vigorous agitation

SMILES | CAC of sodium cholate [1] [millimolal] | shape of aggregates [2] | solubility in neutral water [3]
C[C@H](CCC(=O)[O-])[C@H]1CC[C@H]2[C@@H]3[C@H](O)C[C@@H]4C[C@H](O)CC[C@]4(C)[C@H]3C[C@H](O)[C@]12C.[Na+] [sodium cholate] | 8 | cylindrical | –
CC(C)Cc1ccc(C(C)C(=O)O)cc1 (stereo not drawn) [Ibuprofen] | – | – | very limited

Reference: patent US20110144281A1, “AMPHIPHILIC POLYMERS HAVING A CHOLANE CORE” (VALORISATION-RECHERCHE, SOCIETE EN COMMANDITE, priority 2007, published 2011)
